# From ChEMBL document CHEMBL1201862, “PubChem BioAssay data set” (2004)
# Active and inactive are the calls of the source.
# How the values were obtained:
# [1] = target: T1, Replicative DNA helicase DnaB (Mycobacterium tuberculosis, UniProt P9WMR3); assay: DnaB intein splicing inhibitors, dose response, biochemical, cell-free fluorescence (AID 449749); type: functional
# T1 sequence (P9WMR3 whole entry): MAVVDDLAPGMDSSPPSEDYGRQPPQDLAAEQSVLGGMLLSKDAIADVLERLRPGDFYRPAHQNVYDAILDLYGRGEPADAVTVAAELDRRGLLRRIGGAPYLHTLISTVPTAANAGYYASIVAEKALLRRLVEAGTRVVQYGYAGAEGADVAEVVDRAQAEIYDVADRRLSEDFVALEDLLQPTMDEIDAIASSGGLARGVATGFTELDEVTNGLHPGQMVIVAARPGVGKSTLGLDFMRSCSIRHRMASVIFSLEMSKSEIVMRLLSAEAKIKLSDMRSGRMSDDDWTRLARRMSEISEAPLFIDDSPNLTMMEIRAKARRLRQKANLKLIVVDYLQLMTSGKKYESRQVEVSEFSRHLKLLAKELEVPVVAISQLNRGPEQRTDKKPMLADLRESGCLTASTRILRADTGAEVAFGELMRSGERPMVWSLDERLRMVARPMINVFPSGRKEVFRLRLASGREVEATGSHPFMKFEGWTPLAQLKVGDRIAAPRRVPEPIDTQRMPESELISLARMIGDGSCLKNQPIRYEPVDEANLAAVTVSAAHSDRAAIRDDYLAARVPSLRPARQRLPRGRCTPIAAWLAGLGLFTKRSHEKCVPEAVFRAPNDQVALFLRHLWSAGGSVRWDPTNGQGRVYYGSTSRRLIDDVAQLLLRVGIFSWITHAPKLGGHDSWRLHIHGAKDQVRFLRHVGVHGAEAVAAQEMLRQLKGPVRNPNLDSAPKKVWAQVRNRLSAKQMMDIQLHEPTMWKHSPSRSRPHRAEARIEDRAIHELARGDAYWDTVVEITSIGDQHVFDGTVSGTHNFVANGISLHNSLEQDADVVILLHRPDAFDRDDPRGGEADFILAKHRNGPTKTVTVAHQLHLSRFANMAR
# [2] = viability of HCT116 lacking mutant beta-catenin – cell-based, human colon tumor, dose response (AID 1045); type: functional;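 further: HCT116 colon tumor cells with beta catenin knocked out; cells exposed to compound for 60 hours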
# [3] = target: Eukaryotic translation initiation factor 4E (Mus musculus, UniProt P63073); assay: blockers of eIF4G binding by eIF4E – biochemical, TR-FRET, dose response (AID 855); type: functional;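 further: potency for disrupting eIF4E binding to eIF4GI seen as loss of FRET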
# Eukaryotic translation initiation factor 4E, sequence (P63073 whole entry): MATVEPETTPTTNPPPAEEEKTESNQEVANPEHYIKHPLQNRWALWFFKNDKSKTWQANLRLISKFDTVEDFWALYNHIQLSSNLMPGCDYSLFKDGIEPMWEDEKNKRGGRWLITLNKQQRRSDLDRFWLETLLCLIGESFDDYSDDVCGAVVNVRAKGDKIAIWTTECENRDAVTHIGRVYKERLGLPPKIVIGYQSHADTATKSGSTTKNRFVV
# Protein RecA = target: T2, Protein RecA (Mycobacterium tuberculosis, UniProt P9WHJ3); assay: Fluorescence Cell-Free Homogeneous Dose Retest to Identify Inhibitors of RecA-Intein Splicing Activity. [Related pubchem assays (depositor defined):AID2097, AID2223, AID489010, AID492950]; type: functional
# T2 sequence (P9WHJ3 whole entry): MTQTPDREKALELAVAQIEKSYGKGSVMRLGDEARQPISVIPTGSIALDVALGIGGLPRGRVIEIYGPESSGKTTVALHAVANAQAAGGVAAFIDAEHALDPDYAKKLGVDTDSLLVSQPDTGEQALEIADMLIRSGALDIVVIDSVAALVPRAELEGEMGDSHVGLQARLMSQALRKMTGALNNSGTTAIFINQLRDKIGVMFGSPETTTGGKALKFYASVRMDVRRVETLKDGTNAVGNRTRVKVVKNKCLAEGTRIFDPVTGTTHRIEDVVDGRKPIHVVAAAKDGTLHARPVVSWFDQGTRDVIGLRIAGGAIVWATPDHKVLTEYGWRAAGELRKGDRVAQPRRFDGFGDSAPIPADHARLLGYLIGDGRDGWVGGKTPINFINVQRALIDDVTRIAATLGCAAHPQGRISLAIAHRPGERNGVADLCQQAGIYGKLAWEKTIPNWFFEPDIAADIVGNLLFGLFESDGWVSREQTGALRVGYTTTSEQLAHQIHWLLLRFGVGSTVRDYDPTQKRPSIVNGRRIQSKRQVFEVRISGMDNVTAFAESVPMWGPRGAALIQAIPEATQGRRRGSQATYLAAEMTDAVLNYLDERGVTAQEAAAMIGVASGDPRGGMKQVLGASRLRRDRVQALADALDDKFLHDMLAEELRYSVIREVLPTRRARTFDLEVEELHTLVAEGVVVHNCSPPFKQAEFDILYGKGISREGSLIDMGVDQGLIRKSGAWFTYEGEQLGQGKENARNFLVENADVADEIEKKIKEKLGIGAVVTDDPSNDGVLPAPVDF
# [4] = target: T3, Zinc finger protein mex-5 (Caenorhabditis elegans, UniProt Q9XUB2); assay: potency of MEX-5 RNA-binding blockers – biochemical, C. elegans, fluorescence polarization, dose response (AID 1960)
# T3 sequence (Q9XUB2 whole entry): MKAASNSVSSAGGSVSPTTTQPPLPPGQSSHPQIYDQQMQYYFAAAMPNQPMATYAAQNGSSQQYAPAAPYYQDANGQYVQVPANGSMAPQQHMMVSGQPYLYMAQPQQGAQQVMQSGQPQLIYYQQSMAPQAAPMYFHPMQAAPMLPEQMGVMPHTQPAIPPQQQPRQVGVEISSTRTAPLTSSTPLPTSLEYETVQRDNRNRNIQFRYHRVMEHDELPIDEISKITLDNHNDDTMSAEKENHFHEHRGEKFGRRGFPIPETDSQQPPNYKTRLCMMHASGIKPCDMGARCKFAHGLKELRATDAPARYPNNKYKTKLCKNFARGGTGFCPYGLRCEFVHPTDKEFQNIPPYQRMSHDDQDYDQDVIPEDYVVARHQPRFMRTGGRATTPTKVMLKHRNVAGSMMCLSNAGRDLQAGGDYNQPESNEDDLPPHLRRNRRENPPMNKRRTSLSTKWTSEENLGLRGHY
# [5] = viability of PTEN-deleted HCT116 cells – cell-based, HCT116 PTEN knockout, dose response (AID 1047); type: functional;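 further: HCT116 colon tumor cells with PTEN knocked out; cells exposed to compound for 60 hours before readout; potency for loss of cell viability measured by luminescence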
# Estrogen receptor beta = Estrogen receptor beta (Homo sapiens, UniProt Q92731); assay: blockers of SRC-3 recruitment to ERβ – biochemical, ELISA, streptavidin-HRP readout, orthogonal assay, confirmation (AID 1060)
# Estrogen receptor beta, sequence (Q92731 whole entry, the tested form may be a part): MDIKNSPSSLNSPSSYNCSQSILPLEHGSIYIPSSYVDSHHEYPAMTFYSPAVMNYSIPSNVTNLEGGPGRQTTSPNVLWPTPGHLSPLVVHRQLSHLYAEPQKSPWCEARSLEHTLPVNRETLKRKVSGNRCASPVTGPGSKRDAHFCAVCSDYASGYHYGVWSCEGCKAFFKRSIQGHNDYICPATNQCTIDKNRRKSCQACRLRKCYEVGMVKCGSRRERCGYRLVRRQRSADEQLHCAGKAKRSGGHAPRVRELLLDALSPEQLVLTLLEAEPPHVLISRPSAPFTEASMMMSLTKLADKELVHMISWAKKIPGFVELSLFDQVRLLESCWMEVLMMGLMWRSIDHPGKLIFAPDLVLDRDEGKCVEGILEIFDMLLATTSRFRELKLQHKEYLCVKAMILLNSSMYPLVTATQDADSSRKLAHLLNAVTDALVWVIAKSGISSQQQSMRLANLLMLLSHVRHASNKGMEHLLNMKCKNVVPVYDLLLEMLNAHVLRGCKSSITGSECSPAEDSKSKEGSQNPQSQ
# [6] = target: T4, RNA-binding protein pos-1 (Caenorhabditis elegans, UniProt G5EF15); assay: disruptors of C. elegans POS-1 RNA interaction – biochemical, fluorescence polarization, dose response (AID 1964);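 further: purified POS-1 fused to maltose binding protein made in E. coli; potency of compounds blocking POS-1 binding to fluorescent RNA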
# T4 sequence (G5EF15 whole entry): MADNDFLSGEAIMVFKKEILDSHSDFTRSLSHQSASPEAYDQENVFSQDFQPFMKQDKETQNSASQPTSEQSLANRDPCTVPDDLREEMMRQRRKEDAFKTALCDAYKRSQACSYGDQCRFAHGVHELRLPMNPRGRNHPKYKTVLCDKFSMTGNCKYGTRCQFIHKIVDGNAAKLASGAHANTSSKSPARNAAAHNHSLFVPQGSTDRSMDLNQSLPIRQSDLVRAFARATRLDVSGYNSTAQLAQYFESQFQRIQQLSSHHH
# Ion channel NompC = Ion channel NompC (Danio rerio, UniProt Q7T1G6); assay: Fluorescence counterscreen assay for TRPML3 agonists: dose response cell-based high-throughput screening assay to identify agonists of the transient receptor potential channel N1 (TRPN1). [Related pubchem assays: 1526, 1424, 1448 ]; type: functional
# Ion channel NompC, sequence (Q7T1G6 whole entry): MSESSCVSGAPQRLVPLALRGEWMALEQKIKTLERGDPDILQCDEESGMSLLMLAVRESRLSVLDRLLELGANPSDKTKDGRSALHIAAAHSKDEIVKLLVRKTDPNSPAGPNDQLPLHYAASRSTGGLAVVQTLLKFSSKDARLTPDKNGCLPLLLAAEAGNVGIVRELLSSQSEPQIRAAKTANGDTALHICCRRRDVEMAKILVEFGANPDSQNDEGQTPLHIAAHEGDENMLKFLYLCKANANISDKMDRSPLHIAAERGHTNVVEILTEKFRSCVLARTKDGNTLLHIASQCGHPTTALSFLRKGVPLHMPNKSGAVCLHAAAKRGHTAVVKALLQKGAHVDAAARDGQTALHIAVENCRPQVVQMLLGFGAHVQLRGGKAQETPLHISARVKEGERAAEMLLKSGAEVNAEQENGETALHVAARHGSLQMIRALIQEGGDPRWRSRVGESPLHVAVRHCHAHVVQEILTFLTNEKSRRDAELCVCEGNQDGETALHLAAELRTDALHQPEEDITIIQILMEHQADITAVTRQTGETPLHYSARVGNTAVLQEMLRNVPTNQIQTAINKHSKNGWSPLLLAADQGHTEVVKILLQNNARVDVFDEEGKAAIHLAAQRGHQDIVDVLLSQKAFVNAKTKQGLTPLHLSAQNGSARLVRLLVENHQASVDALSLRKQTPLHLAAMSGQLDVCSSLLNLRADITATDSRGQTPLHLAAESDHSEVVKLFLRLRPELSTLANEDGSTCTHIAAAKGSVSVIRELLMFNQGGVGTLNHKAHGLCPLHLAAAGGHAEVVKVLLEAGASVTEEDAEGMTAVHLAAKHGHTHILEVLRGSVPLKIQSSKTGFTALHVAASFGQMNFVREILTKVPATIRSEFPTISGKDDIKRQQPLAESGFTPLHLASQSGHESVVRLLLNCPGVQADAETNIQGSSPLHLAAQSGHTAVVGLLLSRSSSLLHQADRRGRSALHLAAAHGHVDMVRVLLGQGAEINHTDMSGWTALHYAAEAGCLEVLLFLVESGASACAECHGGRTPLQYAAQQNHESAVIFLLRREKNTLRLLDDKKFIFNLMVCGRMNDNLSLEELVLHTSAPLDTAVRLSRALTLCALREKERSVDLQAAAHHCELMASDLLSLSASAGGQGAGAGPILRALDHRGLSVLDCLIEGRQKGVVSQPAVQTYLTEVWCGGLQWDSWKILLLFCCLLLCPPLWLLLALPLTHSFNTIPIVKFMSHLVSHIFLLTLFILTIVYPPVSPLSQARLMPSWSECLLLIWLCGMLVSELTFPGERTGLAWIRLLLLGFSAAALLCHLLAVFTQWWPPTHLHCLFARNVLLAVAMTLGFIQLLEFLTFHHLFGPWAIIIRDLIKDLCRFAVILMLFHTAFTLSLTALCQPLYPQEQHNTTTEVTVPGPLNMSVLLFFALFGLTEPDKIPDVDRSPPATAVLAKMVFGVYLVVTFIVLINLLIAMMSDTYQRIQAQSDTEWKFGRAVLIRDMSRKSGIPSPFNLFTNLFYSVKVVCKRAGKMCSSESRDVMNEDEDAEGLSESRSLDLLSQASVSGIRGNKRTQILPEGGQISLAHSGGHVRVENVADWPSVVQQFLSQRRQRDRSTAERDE
# Mucolipin-3 = Mucolipin-3 (Homo sapiens, UniProt Q8TDD5); assay: Dose response cell-based high-throughput screening assay for agonists of the transient receptor potential channel ML3 (TRPML3). [Related pubchem assays: 1526, 1424, 1448 ]; type: functional
# Mucolipin-3, sequence (Q8TDD5 whole entry): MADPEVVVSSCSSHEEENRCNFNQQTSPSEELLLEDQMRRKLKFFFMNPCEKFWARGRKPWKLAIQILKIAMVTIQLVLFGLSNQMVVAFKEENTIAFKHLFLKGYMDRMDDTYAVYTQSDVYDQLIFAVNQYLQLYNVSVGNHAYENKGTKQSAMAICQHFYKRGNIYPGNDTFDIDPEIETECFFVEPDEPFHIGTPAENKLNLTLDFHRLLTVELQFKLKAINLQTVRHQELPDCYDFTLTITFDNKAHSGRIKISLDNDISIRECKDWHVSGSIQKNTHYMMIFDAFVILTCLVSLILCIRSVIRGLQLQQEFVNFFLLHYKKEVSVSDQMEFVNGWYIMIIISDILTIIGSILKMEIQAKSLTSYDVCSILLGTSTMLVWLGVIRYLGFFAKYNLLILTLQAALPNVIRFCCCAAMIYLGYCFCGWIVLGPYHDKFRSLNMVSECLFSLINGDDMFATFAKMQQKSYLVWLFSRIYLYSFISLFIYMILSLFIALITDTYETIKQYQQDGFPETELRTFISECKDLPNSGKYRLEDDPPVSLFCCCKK
# HEK293 [7] = assay: NOD2 signaling inhibitors in MDP-stimulated cells, cell-based, uHTS, luminescence (AID 2001); type: functional; settings: Homo sapiens
# [8] = Luminescence-based counterscreen assay for KLF5 inhibitors: dose response cell-based high throughput screening assay to identify cytotoxic compounds using the IEC-6 intestinal epithelial cell line. [Related pubchem assays: 1700 (Primary screen.), 1834 (Confirmation screen.), 1858 (Summary AID.), 1905 (Counterscreen.)]; type: functional
# HEK293 [9] = assay: inhibition of NOD1-driven NF-kB reporter – cell-based, luminescence, uHTS, primary screen (AID 1578); type: functional; settings: Homo sapiens
# HEK293 [10] = assay: cells; type: functional, cell-based; settings: Homo sapiens
# HEK293 [11] = assay: cells; type: functional, cell-based; settings: Homo sapiens; remark: listed apart in the source
# HEK293 [12] = assay: cells; type: functional, cell-based; settings: Homo sapiens; remark: listed apart in the source
# [13] = target: Nucleotide-binding oligomerization domain-containing protein 2 (Homo sapiens, UniProt Q9HC29); assay: inhibition of NOD2-driven NF-kB reporter – cell-based, luminescence, uHTS, HEK293 (AID 1566); type: functional
# Nucleotide-binding oligomerization domain-containing protein 2, sequence (Q9HC29 whole entry, the tested form may be a part): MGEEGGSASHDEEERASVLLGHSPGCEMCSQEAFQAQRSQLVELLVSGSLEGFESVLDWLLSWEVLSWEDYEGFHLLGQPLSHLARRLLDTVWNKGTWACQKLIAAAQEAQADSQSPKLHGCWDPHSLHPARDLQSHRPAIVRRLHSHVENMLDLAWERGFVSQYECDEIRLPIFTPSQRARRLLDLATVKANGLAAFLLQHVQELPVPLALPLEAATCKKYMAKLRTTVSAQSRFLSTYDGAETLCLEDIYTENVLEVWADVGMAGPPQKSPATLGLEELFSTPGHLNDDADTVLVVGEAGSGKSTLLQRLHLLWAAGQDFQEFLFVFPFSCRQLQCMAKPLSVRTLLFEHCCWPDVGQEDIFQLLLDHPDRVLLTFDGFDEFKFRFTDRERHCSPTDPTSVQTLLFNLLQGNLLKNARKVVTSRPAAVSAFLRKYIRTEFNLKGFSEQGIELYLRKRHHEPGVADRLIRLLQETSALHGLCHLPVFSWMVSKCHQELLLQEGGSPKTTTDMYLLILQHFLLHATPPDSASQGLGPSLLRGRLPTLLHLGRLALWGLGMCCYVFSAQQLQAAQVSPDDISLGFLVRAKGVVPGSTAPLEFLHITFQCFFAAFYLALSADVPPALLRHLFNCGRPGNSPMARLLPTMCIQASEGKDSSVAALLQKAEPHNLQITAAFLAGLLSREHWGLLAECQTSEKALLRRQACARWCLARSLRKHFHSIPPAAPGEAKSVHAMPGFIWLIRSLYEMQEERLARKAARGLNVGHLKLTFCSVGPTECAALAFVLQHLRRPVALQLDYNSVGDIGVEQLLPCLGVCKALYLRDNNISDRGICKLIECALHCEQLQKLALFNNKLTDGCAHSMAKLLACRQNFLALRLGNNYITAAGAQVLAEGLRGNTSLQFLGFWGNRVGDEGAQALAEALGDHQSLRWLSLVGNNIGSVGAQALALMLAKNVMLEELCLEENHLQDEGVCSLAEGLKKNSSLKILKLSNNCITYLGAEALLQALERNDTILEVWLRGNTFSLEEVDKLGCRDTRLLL
# [14] = target: Eukaryotic translation initiation factor 4H (Homo sapiens, UniProt Q15056); assay: eIF4H binding inhibition – biochemical, uHTS, fluorescence polarization, translation initiation inhibitor project, primary screen (AID 2012)
# [15] = target: Polyadenylate-binding protein 1 (Homo sapiens, UniProt P11940); assay: blockers of PABP interaction with poly(A) – biochemical, fluorescence polarization, […] (AID 2014)
# Polyadenylate-binding protein 1, sequence (P11940 whole entry): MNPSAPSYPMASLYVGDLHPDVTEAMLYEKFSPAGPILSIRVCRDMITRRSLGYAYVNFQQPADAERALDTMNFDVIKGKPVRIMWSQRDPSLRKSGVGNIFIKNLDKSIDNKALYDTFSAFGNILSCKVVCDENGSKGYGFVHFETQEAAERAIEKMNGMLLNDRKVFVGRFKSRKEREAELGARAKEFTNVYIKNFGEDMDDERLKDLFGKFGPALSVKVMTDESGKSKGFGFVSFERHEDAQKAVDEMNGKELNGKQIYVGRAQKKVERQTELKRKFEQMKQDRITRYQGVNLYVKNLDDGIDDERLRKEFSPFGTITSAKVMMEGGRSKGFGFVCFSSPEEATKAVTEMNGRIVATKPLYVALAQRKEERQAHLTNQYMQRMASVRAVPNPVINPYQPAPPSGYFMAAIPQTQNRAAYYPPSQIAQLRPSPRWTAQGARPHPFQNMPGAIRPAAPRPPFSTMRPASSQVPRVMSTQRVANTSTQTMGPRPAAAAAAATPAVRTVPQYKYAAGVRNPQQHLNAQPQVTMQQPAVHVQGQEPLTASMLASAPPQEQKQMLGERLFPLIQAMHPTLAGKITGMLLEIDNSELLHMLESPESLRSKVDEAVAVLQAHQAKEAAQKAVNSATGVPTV
# [16] = Trypanosoma cruzi growth suppression in host cells – NIH3T3 host cells, beta-gal luminescence, confirmation (AID 2044); type: functional, cell-based;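 further: intracellular parasites grown in NIH/3T3 mouse fibroblasts as host cells; luminescent beta-galactosidase reporter signal from transgenic T. cruzi replicating inside host cells; inhibitors lower the luminescence signal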
# INS1 = assay: INS-1E survival protection against cytokine death – cell-based, luminescence, retest, dose response (AID 449756); type: functional; settings: Rattus norvegicus;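 further: cell death triggered by IL-1 beta plus TNF-alpha plus IFN-gamma mixture; protective hits raise ATP signal compared with cytokine alone wells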
# [17] = tested on: Streptococcus sp. 'group A'; assay: Streptococcus pyogenes SK(-)GAS viability under kanamycin – luminescence, BacTiterGlo, confirmation, counter-screen for streptokinase expression inhibitor project, dose response (AID 1900); type: functional, organism-based
# cells [18] = type: functional, cell-based
# cells [19] = type: functional, cell-based; remark: listed apart in the source
# Streptokinase A = target: T5, Streptokinase A (Streptococcus pyogenes serotype M1, UniProt P10520); assay: viability-normalized secreted streptokinase activity reduction – plasminogen activation absorbance, OD405, dose response (AID 1914); type: functional, Streptococcus pyogenes M1 GAS;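 further: secreted streptokinase activity via plasminogen activation per viability signal from cell pellet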
# T5 sequence (P10520 whole entry): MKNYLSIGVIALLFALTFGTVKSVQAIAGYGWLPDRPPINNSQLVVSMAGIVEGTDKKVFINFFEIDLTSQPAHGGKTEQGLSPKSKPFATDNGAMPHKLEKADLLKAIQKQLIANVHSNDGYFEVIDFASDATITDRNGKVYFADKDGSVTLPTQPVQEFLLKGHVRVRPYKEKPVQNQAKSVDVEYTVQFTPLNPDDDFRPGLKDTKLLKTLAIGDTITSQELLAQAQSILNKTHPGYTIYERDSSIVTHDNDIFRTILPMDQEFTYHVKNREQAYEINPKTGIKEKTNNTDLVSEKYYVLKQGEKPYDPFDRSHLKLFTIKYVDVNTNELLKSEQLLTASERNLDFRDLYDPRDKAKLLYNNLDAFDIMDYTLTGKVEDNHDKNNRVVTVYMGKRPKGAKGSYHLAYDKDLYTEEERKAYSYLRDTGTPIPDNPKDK
# Streptococcus = assay: GAS UMAA2166 growth inhibition – luminescence, BacTiterGlo, counter-screen for streptokinase expression inhibitor project, dose response (AID 1915); type: functional, organism-based;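 further: potency for reduction of bacterial viability or growth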
# HEK293 [20] = assay: EBV LMP1 TES2 canonical NF-kB signalling blockers – cell-based, HEK293, luciferase, cherry-pick, dose response (AID 588343); type: functional; settings: Homo sapiens
# [21] = NIH3T3 cell viability loss – ATP luminescence, mouse fibroblasts, counter-screen, dose response (AID 2010); type: functional, cell-based;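 further: cells exposed to compound for about 90 hours before reading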
smiles,measurement,setting,value
CN1CCN(C2=C(Cl)C(=O)C(c3cnc(N4CCCCC4)s3)=C(Cl)C2=O)CC1,AC50,[1],> 380 µM (inactive)
same,EC50,[2],8.57 µM (active)
same,IC50,[3],19.2 µM (inactive)
same,EC50,Protein RecA,1.29 µM (active)
same,EC50,[4],4.18 µM (active)
same,EC50,[5],10.1 µM (active)
same,IC50,Estrogen receptor beta,630 nM (not active)
same,EC50,[6],5.11 µM (active)
O=C(C1Cc2ccccc2CN1S(=O)(=O)c1ccc(F)cc1)N1CCCCC1 (stereo unspecified),EC50,Ion channel NompC,13.3 µM (not active)
same,EC50,Mucolipin-3,2.06 µM (active)
CC1CCN(S(=O)(=O)c2ccc3ccccc3c2)CC1,EC50,Ion channel NompC,> 29.9 µM (not active)
same,EC50,Mucolipin-3,2.83 µM (active)
Cc1cc(/C=N/Nc2nc(N)ncc2[N+](=O)[O-])c(C)n1-c1ccccc1F,IC50,HEK293 [7],6.02 µM (active)
same,IC50,[8],> 39.8 µM (not active)
same,EC50,HEK293 [9],4.64 µM (active)
same,IC50,HEK293 [10],1.77 µM (active)
same,IC50,HEK293 [11],> 20 µM (inactive)
same,IC50,HEK293 [12],> 20 µM (inactive)
same,EC50,[13],< 310 nM (inactive)
C[N+]1=C2c3ccccc3N=CN2CC1,IC50,[14],> 100 µM (inactive)
same,IC50,[15],4.47 µM (active)
Cc1ccc2[nH]c(C(=O)N/N=C/c3ccccc3O)c(C)c2c1,EC50,[16],564 nM (active)
same,AC50,INS1,507 nM (active)
same,EC50,[17],1.63 µM (active)
same,IC50,[8],3.15 µM (active)
same,EC50,cells [18],6.86 µM (active)
same,EC50,cells [19],> 350 µM (not active)
same,EC50,Streptokinase A,> 150 µM (not active)
same,EC50,Streptococcus,3.86 µM (active)
same,AC50,HEK293 [20],7.07 µM (active)
same,EC50,[21],6.55 µM (active)
